Measured values published in BindingDB's records for PubMed 20126400 (University of Oklahoma, 2010).

Assays:
Assay in all cases: Ray2010 Assay 74
Cannabinoid receptor 2 = Cannabinoid receptor 2 (Homo sapiens, UniProt P34972)
Source text: (§1) Table S2 shows raw Ki data for the current study combined with data collected from the literature for the ten additional compounds.

Histamine H3 receptor = Histamine H3 receptor (Homo sapiens, UniProt Q9Y5N1)
Source text: as §1

Nischarin = Nischarin (Homo sapiens, UniProt Q9Y2I1)
Source text: as §1

[1] = biological target: T1, Gamma-aminobutyric acid receptor subunit alpha-1/Adenosine receptor A1 (Homo sapiens, UniProt P14867+P30542)
T1 sequence (P30542 whole entry): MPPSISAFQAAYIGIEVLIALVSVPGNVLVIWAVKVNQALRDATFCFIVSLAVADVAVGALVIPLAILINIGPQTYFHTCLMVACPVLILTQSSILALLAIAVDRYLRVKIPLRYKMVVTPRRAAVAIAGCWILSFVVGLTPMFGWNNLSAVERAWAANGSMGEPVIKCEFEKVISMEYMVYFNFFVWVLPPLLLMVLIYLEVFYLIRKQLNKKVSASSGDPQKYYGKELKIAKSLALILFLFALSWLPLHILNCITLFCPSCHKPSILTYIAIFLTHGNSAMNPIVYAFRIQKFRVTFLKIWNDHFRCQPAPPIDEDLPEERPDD
T1 sequence (P14867 whole entry): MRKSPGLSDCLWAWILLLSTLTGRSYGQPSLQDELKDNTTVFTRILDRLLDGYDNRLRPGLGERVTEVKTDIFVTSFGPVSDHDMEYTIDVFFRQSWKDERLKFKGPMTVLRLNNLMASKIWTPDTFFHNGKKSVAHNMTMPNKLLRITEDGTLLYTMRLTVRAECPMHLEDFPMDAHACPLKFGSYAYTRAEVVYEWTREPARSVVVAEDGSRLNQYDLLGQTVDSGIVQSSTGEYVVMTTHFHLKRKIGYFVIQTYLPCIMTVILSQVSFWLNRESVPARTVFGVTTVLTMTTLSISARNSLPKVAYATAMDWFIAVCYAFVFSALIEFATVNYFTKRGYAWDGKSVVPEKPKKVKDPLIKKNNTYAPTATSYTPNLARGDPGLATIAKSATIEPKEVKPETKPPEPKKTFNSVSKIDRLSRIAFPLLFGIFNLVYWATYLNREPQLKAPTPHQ
Source text: as §1

[2] = biological target: T2, Alpha-2C adrenergic receptor (Homo sapiens, UniProt P18825)
T2 sequence (P18825 whole entry): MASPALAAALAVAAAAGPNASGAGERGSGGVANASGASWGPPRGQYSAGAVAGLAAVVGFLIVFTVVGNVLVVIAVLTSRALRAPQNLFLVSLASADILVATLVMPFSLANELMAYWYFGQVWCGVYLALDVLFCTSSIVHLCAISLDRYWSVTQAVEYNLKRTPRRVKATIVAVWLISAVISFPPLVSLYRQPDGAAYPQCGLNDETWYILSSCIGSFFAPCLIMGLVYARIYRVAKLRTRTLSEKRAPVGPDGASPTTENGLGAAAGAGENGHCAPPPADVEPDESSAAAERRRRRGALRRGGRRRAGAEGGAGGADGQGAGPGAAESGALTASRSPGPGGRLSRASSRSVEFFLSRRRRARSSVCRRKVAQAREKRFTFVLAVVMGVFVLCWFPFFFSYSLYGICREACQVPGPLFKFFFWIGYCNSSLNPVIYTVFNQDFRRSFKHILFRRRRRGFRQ
Source text: as §1

[3] = biological target: Beta-1 adrenergic receptor (Homo sapiens, UniProt P08588)
Beta-1 adrenergic receptor, sequence (P08588 whole entry): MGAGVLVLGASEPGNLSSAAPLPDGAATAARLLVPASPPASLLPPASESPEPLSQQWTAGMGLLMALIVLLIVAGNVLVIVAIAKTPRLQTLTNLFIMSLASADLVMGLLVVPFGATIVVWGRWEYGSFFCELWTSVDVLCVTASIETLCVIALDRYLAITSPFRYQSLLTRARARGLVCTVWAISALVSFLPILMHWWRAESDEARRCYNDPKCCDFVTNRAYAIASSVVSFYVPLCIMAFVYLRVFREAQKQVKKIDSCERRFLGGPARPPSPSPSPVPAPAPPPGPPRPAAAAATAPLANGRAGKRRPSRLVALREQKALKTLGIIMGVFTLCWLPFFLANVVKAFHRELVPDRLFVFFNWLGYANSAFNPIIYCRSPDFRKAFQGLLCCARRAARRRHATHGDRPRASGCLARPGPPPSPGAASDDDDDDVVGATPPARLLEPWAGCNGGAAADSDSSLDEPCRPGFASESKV
Source text: as §1

Vasopressin V1b receptor = biological target: T3, Vasopressin V1b receptor (Homo sapiens, UniProt P47901)
T3 sequence (P47901 whole entry): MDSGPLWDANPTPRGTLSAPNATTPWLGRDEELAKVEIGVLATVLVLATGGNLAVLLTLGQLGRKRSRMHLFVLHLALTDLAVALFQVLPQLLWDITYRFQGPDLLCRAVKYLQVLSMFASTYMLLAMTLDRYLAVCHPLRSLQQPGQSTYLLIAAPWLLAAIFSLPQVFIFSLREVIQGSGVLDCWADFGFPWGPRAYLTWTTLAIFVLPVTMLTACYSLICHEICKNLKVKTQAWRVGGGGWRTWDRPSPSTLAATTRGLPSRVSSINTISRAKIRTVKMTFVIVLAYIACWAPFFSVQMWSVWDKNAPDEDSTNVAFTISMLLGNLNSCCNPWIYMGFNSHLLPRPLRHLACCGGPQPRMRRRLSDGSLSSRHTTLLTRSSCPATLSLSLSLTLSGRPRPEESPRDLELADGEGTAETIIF
Source text: as §1

[4] = biological target: T4, Muscarinic acetylcholine receptor M1 (Homo sapiens, UniProt P11229)
T4 sequence (P11229 whole entry): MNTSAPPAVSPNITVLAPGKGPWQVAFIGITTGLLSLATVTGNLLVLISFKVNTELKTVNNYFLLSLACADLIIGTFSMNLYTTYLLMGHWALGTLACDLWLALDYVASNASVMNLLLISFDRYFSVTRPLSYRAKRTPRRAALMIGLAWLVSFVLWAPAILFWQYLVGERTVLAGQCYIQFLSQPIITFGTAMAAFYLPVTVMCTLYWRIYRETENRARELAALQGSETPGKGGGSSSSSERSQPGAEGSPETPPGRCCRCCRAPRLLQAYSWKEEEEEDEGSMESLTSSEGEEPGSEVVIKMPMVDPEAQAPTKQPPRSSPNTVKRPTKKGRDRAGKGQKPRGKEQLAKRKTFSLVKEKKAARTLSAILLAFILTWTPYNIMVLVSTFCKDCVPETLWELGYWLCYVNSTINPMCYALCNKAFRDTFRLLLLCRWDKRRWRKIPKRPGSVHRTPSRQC
Source text: as §1

Vasopressin V1a receptor = Vasopressin V1a receptor (Homo sapiens, UniProt P37288)
Vasopressin V1a receptor, sequence (P37288 whole entry): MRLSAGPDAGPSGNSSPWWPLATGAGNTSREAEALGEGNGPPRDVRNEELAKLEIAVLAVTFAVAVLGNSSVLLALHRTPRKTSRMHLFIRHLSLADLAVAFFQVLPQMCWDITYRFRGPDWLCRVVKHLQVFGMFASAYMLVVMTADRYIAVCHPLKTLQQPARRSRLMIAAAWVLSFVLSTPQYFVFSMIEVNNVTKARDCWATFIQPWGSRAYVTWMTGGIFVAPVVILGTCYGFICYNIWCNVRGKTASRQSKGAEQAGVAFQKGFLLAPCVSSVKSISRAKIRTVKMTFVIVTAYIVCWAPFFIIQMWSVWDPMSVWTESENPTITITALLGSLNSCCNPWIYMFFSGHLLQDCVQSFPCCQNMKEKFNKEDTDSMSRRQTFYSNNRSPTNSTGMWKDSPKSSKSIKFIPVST
Source text: as §1

[5] = biological target: Sigma intracellular receptor 2 (Homo sapiens, UniProt Q5BJF2)
Sigma intracellular receptor 2, sequence (Q5BJF2 whole entry): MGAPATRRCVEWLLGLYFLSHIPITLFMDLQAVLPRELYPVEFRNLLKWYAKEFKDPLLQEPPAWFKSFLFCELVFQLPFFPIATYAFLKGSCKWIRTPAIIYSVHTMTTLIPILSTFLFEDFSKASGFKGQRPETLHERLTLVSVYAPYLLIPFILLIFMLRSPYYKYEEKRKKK
Source text: as §1

[6] = biological target: Muscarinic acetylcholine receptor M3 (Homo sapiens, UniProt P20309)
Muscarinic acetylcholine receptor M3, sequence (P20309 whole entry): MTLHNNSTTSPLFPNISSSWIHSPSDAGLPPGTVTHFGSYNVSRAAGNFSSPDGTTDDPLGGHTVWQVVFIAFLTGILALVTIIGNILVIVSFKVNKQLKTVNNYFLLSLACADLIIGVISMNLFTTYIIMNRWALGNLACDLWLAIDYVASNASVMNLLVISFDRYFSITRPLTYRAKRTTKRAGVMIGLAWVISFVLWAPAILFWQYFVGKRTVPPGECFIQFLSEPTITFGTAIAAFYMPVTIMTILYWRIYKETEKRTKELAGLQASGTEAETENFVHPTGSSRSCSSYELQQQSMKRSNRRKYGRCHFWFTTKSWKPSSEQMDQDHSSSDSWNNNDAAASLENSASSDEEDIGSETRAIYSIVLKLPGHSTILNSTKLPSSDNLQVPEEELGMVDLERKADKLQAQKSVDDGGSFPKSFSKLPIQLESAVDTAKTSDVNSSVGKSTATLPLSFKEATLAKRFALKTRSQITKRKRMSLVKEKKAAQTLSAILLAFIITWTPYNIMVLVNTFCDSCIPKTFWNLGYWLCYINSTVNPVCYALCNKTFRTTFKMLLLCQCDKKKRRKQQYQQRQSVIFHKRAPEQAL
Source text: as §1

[7] = biological target: Voltage-dependent calcium channel subunit alpha-2/delta-1 (Homo sapiens, UniProt P54289)
Voltage-dependent calcium channel subunit alpha-2/delta-1, sequence (P54289 25-956 limits assumed): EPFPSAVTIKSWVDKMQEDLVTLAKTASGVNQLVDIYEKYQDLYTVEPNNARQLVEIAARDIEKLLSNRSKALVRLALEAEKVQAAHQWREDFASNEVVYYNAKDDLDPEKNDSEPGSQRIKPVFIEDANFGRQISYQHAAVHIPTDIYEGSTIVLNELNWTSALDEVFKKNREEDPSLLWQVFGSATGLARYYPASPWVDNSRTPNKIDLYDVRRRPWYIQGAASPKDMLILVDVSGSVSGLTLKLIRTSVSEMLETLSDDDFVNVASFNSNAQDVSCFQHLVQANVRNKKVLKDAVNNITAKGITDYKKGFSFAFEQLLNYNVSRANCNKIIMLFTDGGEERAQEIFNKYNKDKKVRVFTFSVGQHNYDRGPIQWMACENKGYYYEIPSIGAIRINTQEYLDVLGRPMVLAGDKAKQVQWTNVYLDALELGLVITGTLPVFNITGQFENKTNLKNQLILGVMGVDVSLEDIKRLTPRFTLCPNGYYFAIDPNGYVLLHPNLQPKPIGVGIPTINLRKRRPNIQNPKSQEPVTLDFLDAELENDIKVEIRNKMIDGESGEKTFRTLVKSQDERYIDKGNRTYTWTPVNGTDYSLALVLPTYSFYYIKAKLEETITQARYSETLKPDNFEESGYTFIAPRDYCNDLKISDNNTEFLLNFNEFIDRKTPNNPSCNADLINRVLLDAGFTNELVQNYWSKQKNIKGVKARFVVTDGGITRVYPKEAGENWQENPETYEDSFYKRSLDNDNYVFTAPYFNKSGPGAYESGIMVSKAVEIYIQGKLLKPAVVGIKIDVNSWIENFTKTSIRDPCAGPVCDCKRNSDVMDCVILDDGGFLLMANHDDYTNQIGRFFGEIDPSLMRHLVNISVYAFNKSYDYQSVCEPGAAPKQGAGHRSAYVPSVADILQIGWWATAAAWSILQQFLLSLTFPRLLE
Voltage-dependent calcium channel subunit alpha-2/delta-1, sequence (P54289 957-1103 limits assumed): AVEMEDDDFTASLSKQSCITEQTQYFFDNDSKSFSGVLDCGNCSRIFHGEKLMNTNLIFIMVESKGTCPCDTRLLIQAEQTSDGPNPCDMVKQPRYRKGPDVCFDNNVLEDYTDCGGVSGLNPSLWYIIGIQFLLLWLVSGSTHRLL
Source text: as §1

Histamine H3 receptor, sequence (Q9Y5N1 whole entry): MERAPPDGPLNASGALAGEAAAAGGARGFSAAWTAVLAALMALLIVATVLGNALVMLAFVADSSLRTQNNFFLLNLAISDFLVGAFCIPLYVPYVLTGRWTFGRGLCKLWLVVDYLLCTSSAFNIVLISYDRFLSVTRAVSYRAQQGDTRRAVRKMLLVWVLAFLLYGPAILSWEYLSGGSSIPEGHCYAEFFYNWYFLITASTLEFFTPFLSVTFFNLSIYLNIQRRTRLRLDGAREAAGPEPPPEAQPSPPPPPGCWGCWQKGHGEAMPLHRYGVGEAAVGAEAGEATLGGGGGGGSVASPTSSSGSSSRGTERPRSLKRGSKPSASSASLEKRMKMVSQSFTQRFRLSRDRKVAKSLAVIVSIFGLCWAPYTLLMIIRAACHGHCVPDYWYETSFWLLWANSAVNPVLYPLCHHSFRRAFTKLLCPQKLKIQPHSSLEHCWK
Cannabinoid receptor 2, sequence (P34972 whole entry): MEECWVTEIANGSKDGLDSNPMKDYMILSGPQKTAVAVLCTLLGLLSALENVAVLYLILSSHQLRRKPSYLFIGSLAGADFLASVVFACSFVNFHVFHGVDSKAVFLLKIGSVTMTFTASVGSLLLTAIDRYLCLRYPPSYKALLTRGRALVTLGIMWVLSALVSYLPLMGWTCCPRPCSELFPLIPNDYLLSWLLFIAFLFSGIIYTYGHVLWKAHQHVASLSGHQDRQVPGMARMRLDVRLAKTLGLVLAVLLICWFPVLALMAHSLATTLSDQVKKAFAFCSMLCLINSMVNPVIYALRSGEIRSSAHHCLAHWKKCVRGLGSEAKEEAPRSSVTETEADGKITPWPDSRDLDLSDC

| Compound | Ki (Cannabinoid receptor 2) | Ki (Histamine H3 receptor) | Ki (Nischarin) | Ki [1] | Ki [2] | Ki [3] | Ki (Vasopressin V1b receptor) | Ki [4] | Ki (Vasopressin V1a receptor) | Ki [5] | Ki [6] | Ki [7] |
| --- | --- | --- | --- | --- | --- | --- | --- | --- | --- | --- | --- | --- |
| CC(N)Cc1ccc2c(c1)OCO2 (centres undefined) | > 10 µM | > 10 µM | > 10 µM | > 10 µM | 0.229 µM | > 10 µM |  |  |  |  |  |  |
| CCOc1cc(OC)c(CC(C)N)cc1OC (centres undefined) | > 10 µM | > 10 µM | > 10 µM | > 10 µM | > 10 µM | > 10 µM | > 10 µM | > 10 µM | > 10 µM | > 10 µM | > 10 µM | > 10 µM |
| COc1cc(CC(C)N)cc(OC)c1OC (centres undefined) | > 10 µM | > 10 µM | > 10 µM |  | 5.01 µM | > 10 µM |  |  |  | 0.536 µM |  |  |
| COc1cc(CCN)c(OC)cc1Br | > 10 µM | > 10 µM | 2.16 µM | > 10 µM | 0.103 µM |  | > 10 µM | > 10 µM | > 10 µM | > 10 µM | 0.822 µM |  |
| CC[C@H]1C[C@@H]2C[C@H]3c4[nH]c5ccc(OC)cc5c4CCN(C2)[C@@H]13 |  |  |  |  |  | > 10 µM |  | 22.5 µM |  | 0.206 µM | 12.5 µM |  |
| CCc1cc(OC)c(CC(C)N)cc1OC (centres undefined) | > 10 µM | > 10 µM | > 10 µM |  | 1.45 µM | 5.72 µM |  |  |  | 9.56 µM |  |  |
| CN(C)CCc1c[nH]c2ccccc12 [2-(1H-indol-3-yl)-N,N-dimethylethanamine] | > 10 µM | > 10 µM | 0.65 µM | > 10 µM |  | > 10 µM |  | > 10 µM |  | > 10 µM | > 10 µM | > 10 µM |
| COc1cc(CC(C)N)c(OC)cc1Br (stereo not drawn) [2-(4-Bromo-2,5-dimethoxy-phenyl)-1-methyl-ethylamine((-)-DOB)] | > 10 µM |  |  | > 10 µM | 0.594 µM | 2.42 µM | > 10 µM | > 10 µM | > 10 µM | > 10 µM | 1.15 µM | > 10 µM |
| NCCc1c2c(c(Br)c3c1OCC3)OCC2 [2-(8-Bromo-2,3,6,7-tetrahydro-benzo[1,2-b;4,5-b']difuran-4-yl)-ethylamine] | 8.97 µM | > 10 µM | > 10 µM |  | 0.233 µM | > 10 µM |  |  |  | > 10 µM | 0.339 µM |  |
| CCc1[nH]c2ccc(OC)cc2c1CCN(C)C [2-ethyl-5-methoxy-N,N-dimethyltryptamine] |  | > 10 µM |  |  |  |  | > 10 µM | > 10 µM | > 10 µM |  | > 10 µM |  |
| COC(=O)[C@@H]1C[C@H](OC(C)=O)C(=O)[C@H]2[C@@]1(C)CC[C@H]1C(=O)O[C@H](c3ccoc3)C[C@]21C [2S,4aR,6a(R,7R,9S,10aS,10bR)-9-(acetyloxy)-2-(furan-3-yl)dodecahydro-6a,10b-dimethyl-4,10-dioxo-2H-naphtho[2,1-c]pyran-7-carboxylic acid methyl ester] |  |  |  |  |  | > 10 µM |  | > 10 µM |  |  | > 10 µM |  |
| COc1ccc2[nH]cc(CCN(C)C)c2c1 [3-(2-DIMETHYLAMINOETHYL)-5-METHOXYINDOLE] | > 10 µM |  | 2.5 µM | > 10 µM | 0.508 µM | > 10 µM |  | > 10 µM |  | > 10 µM | > 10 µM | > 10 µM |
| CN(C)CCc1c[nH]c2cccc(O)c12 [4-hydroxy-N,N-dimethyltryptamine] | > 10 µM | > 10 µM | 0.792 µM | > 10 µM |  | > 10 µM |  | > 10 µM |  | > 10 µM | > 10 µM | > 10 µM |
| COc1cc(OC)c(OC)cc1CC(C)N (stereo not drawn) [(+/-)1-Methyl-2-(2,4,5-trimethoxy-phenyl)-ethylamine] |  | > 10 µM |  |  | > 10 µM | > 10 µM |  |  |  |  |  |  |
| COc1cc(CC(C)N)c(OC)cc1C (stereo not drawn) [(+/-)2-(2,5-Dimethoxy-4-methyl-phenyl)-1-methyl-ethylamine] | > 10 µM | > 10 µM | > 10 µM |  | 0.921 µM | > 10 µM |  | > 10 µM |  | > 10 µM |  |  |
| COc1ccc2[nH]c(C)c(CCN(C)C)c2c1 [[2-(5-Methoxy-2-methyl-1H-indol-3-yl)-ethyl]-dimethyl-amine (C2H2O)] |  | > 10 µM |  |  |  |  | > 10 µM | > 10 µM | > 10 µM |  | > 10 µM |  |
| CCN(CC)C(=O)[C@@H]1C=C2c3cccc4[nH]cc(c34)C[C@H]2N(C)C1 [[N-methyl-3H]LSD] |  |  |  |  |  |  | > 10 µM |  | > 10 µM |  |  |  |
| C[C@@H]1C[C@H](C)N1C(=O)C1C=C2c3cccc4[nH]cc(c34)C[C@H]2N(C)C1 (stereo partly drawn) [cis-2a] |  |  |  |  |  |  | > 10 µM |  | > 10 µM |  |  |  |
| CC(C)N(CCc1c[nH]c2ccccc12)C(C)C [dipt] | > 10 µM |  | 0.356 µM | > 10 µM | 2.52 µM | > 10 µM | > 10 µM | > 10 µM | > 10 µM | 2.7 µM | > 10 µM | > 10 µM |
| CCCN(CCC)CCc1c[nH]c2ccccc12 [dpt] | > 10 µM | > 10 µM |  | > 10 µM | 0.514 µM | > 10 µM | > 10 µM | > 10 µM | > 10 µM | 2.92 µM | > 10 µM | > 10 µM |
| CNC(C)Cc1ccc2c(c1)OCO2 (centres undefined) [mdma] |  |  | 0.22 µM | > 10 µM | 1.35 µM | > 10 µM | > 10 µM | > 10 µM |  |  |  | 1.2 µM |
| C[C@@H]1C[C@@H](C)N1C(=O)C1C=C2c3cccc4[nH]cc(c34)C[C@H]2N(C)C1 (some centres undefined) [rr-2b] |  |  |  |  |  |  | > 10 µM |  | > 10 µM |  |  |  |
| CAS_82830-44-2::(2R)-1-(4-iodo-2,5-dimethoxyphenyl)propan-2-amine::DOI,(-)::US20250270173, Compound DOI | > 10 µM | > 10 µM | > 10 µM |  | 0.601 µM | 0.591 µM |  | 2.72 µM |  | 9.17 µM | 1.43 µM |  |
